In ChEMBL document CHEMBL1201862, “PubChem BioAssay data set” (2004) one finds AC50, EC50 and IC50 data, which are given here for 32 compounds.

Calls of active or inactive are those of the source. A value given as a limit tells only on which side of the number the result lay.

The target in one assay is Cytochrome P450 2D6 (Homo sapiens, UniProt P10635).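 Also: CYP2D6 member of a cytochrome P450 panel assay.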
The next assay deals with T1, Cytochrome P450 1A2 (Homo sapiens, UniProt P05177).
T1 sequence (P05177 whole entry): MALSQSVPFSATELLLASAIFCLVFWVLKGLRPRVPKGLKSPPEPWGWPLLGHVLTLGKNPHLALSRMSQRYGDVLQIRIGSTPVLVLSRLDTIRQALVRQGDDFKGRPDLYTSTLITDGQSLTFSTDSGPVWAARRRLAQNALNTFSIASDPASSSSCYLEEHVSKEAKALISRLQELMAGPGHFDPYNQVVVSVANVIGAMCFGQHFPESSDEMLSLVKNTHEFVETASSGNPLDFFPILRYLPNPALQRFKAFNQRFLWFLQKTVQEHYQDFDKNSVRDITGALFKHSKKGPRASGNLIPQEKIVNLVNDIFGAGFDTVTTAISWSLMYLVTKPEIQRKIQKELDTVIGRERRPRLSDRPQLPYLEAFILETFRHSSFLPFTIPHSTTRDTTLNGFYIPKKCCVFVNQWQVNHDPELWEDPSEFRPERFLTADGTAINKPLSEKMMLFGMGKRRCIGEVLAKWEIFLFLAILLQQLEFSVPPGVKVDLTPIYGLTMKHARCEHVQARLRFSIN

A further assay deals with Cytochrome P450 2C19 (Homo sapiens, UniProt P33261). Put plainly: Cytochrome panel assay with activity outcomes. Panel member name: p450-cyp2c19 Compounds with AC50 equal or less than 10 uM are considered active. The format is functional. Conditions: read-out: AC50.
The next assay has as its target Cytochrome P450 3A4 (Homo sapiens, UniProt P08684).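 Also: CYP3A4 tested as one member of a cytochrome P450 panel screen.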
Assay [1] is described as follows: Luminescence Cell-Based Dose Confirmation HTS to Identify Activators of 5'UTR Stem-Loop Driven Alpha-Synuclein mRNA Translation in H4 Neuroglioblastoma Cells. [Related pubchem assays: 1829 (Project Summary), 1814 (Primary HTS)]. The format is functional.
The nature of assay [2]: Luminescence Cell-Based Dose Response HTS to Identify Activators of Luciferase Translation or Activity in H4 […] Cells. [Related pubchem assays: 1829 (Project Summary), 1814 (Primary HTS)]. The format is functional.
The subject of another assay is H4. The assay can be described thus: Luminescence Cell-Based Dose Response HTS to Identify Activators of 5'UTR Stem-Loop Driven Prion Protein mRNA Translation in H4 Neuroglioblastoma Cells. [Related pubchem assays: 1829 (Project Summary), 1814 (Primary HTS)]. In kind it is functional. Particulars: Homo sapiens.
Assay [3] addresses T2, Corticotropin-releasing factor receptor 2/Corticotropin-releasing factor-binding protein (Homo sapiens, UniProt P24387+Q13324).
T2 sequence (Q13324 whole entry): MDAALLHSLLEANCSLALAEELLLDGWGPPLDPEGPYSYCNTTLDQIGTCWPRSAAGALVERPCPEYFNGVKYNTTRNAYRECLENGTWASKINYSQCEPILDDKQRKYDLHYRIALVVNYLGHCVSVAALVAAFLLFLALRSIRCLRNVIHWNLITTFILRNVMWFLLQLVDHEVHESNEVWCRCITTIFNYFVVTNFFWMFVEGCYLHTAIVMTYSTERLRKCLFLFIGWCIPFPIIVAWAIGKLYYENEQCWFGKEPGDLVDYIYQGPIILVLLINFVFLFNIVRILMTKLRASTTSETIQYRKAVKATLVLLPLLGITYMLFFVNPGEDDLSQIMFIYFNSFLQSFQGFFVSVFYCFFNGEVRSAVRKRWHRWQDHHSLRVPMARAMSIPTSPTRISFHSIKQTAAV
T2 sequence (P24387 whole entry): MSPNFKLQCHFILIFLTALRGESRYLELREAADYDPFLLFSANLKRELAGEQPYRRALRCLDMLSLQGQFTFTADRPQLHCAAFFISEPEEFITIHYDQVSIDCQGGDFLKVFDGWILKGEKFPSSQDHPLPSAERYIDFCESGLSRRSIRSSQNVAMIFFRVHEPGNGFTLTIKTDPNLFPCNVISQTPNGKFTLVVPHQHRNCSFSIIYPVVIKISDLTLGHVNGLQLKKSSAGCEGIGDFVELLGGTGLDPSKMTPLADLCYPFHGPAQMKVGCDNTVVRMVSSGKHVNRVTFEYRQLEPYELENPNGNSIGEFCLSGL
The assay can be described thus: activators of CRF receptor 2 with binding protein – uHTS hits, confirmation (AID 602473). In kind it is functional. Conditions: read-out: EC50_Mean.

Assay [4] concerns the target T3, Rac GTPase-activating protein 1 (Homo sapiens, UniProt Q9H0H5).
T3 sequence (Q9H0H5 whole entry): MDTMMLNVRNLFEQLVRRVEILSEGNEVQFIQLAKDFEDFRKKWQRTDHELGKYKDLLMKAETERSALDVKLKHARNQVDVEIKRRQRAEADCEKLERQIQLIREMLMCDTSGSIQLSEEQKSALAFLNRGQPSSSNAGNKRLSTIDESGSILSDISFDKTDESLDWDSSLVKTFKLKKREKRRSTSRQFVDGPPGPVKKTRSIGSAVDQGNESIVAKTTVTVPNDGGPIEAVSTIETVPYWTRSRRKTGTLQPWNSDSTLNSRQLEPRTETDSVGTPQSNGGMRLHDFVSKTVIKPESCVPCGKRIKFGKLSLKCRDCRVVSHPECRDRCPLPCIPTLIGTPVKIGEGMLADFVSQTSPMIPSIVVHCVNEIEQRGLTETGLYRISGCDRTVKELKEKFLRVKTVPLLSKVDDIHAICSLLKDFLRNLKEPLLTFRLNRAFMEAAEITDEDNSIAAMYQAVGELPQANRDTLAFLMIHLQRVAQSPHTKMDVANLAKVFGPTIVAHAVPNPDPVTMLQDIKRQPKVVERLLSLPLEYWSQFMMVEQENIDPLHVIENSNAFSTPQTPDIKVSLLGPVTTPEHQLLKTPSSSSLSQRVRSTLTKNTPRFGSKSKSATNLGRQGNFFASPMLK
Put plainly: MgcRacGAP GTPase-activating activity inhibitors, confirmation, biochemical, ADP Hunter fluorescence, primary and confirmatory (AID 624330). In kind it is functional.

The subject of assay [5] is Streptococcus sp. 'group A'. The assay can be described thus: growth inhibition of control SK(-) GAS strain, dose response, counter-screen for streptokinase expression inhibitor project, luminescence, kanamycin, BacTiterGlo, confirmation (AID 1900). The format is functional, organism-based. Background: Counterscreens check selectivity or assay interference.
A further assay concerns the target T4, Streptokinase A (Streptococcus pyogenes serotype M1, UniProt P10520).
T4 sequence (P10520 whole entry): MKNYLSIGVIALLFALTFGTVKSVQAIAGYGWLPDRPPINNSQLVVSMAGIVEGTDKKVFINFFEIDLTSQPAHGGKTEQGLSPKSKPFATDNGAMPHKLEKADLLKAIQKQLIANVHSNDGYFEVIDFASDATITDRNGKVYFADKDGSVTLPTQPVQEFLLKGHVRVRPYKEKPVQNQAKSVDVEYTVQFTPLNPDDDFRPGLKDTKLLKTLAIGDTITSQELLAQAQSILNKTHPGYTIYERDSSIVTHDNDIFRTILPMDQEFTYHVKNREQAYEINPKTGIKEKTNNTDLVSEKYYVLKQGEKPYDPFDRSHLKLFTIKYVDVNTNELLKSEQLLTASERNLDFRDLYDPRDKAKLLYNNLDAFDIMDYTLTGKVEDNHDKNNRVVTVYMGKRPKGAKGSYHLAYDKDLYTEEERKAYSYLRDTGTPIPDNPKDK
Put plainly: S. pyogenes streptokinase expression inhibitors, potency, dose response, plasminogen activation absorbance, OD405 (AID 1914).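 Also: secreted streptokinase activity via plasminogen activation per viability signal from cell pellet.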 In kind it is functional, Streptococcus pyogenes M1 GAS.

A further assay deals with Streptococcus. Put plainly: Group A Streptococcus viability loss, dose response, counter-screen for streptokinase expression inhibitor project, luminescence, BacTiterGlo (AID 1915).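 Also: potency for reduction of bacterial viability or growth.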 The format is functional, organism-based.

As a reminder, the AC50 is the concentration giving half of the maximal activity seen. What is called IC50 is the concentration at which inhibition is half-maximal.

Cytochrome P450 3A4, sequence (P08684 whole entry): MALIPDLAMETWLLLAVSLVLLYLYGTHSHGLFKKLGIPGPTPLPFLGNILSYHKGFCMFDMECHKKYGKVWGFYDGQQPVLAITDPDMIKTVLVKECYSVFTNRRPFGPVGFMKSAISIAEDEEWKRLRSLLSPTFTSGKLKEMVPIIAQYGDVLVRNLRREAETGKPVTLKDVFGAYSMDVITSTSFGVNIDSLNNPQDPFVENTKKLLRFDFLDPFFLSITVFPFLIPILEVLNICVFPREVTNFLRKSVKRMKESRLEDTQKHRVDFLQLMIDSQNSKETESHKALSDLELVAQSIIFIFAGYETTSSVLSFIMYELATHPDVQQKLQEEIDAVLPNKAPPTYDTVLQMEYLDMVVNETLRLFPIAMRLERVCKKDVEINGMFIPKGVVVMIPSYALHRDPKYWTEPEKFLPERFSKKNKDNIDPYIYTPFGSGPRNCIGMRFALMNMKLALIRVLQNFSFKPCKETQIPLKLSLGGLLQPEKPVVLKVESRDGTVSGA
Cytochrome P450 2D6, sequence (P10635 whole entry): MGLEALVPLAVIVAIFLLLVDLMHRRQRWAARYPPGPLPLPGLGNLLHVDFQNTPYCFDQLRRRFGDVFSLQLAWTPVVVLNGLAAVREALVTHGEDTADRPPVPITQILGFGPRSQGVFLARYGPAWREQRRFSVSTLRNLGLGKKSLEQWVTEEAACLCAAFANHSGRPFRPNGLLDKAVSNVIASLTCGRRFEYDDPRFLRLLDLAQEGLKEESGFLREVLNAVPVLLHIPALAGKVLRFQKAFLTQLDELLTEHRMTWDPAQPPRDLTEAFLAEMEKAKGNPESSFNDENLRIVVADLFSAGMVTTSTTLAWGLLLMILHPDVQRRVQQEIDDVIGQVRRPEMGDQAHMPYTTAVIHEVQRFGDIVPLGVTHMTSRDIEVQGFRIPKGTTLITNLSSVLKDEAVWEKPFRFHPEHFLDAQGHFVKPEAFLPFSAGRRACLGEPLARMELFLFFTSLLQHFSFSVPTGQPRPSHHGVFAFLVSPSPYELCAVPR
Cytochrome P450 2C19, sequence (P33261 whole entry): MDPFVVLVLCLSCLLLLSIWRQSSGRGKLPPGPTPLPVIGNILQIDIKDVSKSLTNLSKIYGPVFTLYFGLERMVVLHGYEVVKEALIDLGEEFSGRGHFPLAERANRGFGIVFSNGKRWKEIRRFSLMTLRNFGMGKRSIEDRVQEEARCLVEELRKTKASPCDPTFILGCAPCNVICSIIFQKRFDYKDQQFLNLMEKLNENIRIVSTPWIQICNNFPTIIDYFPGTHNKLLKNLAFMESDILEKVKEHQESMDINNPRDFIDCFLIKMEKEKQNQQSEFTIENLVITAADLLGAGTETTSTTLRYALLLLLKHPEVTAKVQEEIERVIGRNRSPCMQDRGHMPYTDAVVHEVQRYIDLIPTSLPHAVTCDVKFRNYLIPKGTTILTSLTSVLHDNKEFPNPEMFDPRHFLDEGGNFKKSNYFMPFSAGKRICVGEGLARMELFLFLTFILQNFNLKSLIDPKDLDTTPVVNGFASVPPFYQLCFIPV

For the compound `O=C(/C=C/c1cccnc1)c1ccc(NC(=O)c2cccc(Br)c2)cc1`, the AC50 is 2 µM (inconclusive) on Cytochrome P450 2D6 and 14.1 µM (inconclusive) on Cytochrome P450 1A2.

For the compound `CCO[C@H]1O[C@@H]([C@H](COCc2ccccc2)OCc2ccccc2)[C@@H](OCc2ccccc2)[C@H]1O`, the AC50 was 5.01 µM (inconclusive) at Cytochrome P450 2C19, 15.8 µM (inconclusive) at Cytochrome P450 2D6 and 12.6 µM (inconclusive) on Cytochrome P450 1A2.

Turning to `COCCn1c(=O)c(-c2ccc(OC)cc2)nc2cnc(Nc3cccc(OC)c3)nc21`, the AC50 was 10 µM (inconclusive) at Cytochrome P450 1A2 and 5.01 µM (inconclusive) at Cytochrome P450 3A4.

As to `Cc1nn(-c2ccccc2)c(C)c1C(=O)OCC(=O)N(C)C1CCS(=O)(=O)C1` (stereo not drawn), the EC50 in assay [1] is 0.313 µM (active); in assay [2], 12.5 µM (active).

In the case of `CCOC(=O)C1(CCc2ccccc2)CCN(C(=O)CCn2cncn2)CC1`, the EC50 in [1] was 28.8 µM (active); in assay [2], 12 µM (active); with H4 it was 7.67 µM (active).

As for `COc1ccc(/C=C2\SC(=O)N(CCNC(=O)Cc3coc4cc(OC)ccc34)C2=O)cc1`, the figures for the EC50 (in assay [1]; in [2]; with H4) were 23.4 µM (active), 11.5 µM (active) and 10.4 µM (active), respectively.

As to `Cn1c(SCC(=O)N/N=C/c2cc([N+](=O)[O-])ccc2O)nnc1-c1ccccc1`, the EC50 in [3] is > 53 µM (inactive).

As to `COc1cc(C(C)=O)ccc1OCc1cc(C(=O)N(C)CCC2CCCCO2)no1` (stereo not drawn), the EC50 in [1] is 0.831 µM (active); in [2], 80.8 µM (active); in the assay on H4, 7.86 µM (active).

As for `O=C1NC(=O)C2(N1)C(=O)c1cccc3cccc2c13` (stereo not drawn), in assay [3], the EC50 is 8.84 µM (active).

For `COc1cc(/C=C/C(=O)OCC(=O)N2CCN(S(=O)(=O)c3ccc(C)cc3C)CC2)ccc1O`, the IC50 in [4] is 88.2 µM (active).

Turning to `O=C(CSc1ccc2ccccc2n1)N/N=C/c1ccc(O)cc1`, in [4], the IC50 is 73.2 µM (active).

Turning to `Nc1ccc2c(c1Br)Cc1ccccc1-2`, the IC50 in assay [4] is 43.8 µM (active).

On to `O=[N+]([O-])c1cc([N+](=O)[O-])c2nonc2c1Nc1ccccc1O`, for which, in assay [4], the IC50 is 76.9 µM (active).

For the compound `COC(=O)C1C(O)=C(/C=N/c2ccc(N)cc2)C(=O)CC1(C)C` (stereo not drawn), the IC50 in assay [4] was 40 µM (active).

On to `CC(=O)Nc1nnc(S)s1`, for which, in assay [4], the IC50 is 66.2 µM (active).

In the case of `NCCCCNS(=O)(=O)c1ccc2c(Cl)cccc2c1`, the AC50 was 31.6 µM (inconclusive) at Cytochrome P450 2D6, 39.8 µM (inconclusive) at Cytochrome P450 1A2 and 25.1 µM (inconclusive) on Cytochrome P450 3A4.

With `COC(=O)[C@@]1(Cc2ccc(F)cc2)[C@H]2c3cc(C(=O)N4CCCC4)n(Cc4ccc(S(C)(=O)=O)cc4)c3C[C@H]2CN1C(=O)c1ccccc1`, the figures for the AC50 at Cytochrome P450 1A2 and at Cytochrome P450 3A4 were 15.8 µM (inconclusive) and 1.26 µM (inconclusive), respectively.

`COc1ccc(NC2CCCN(C(=O)CCN3CCCC3=O)C2)cc1OC` (stereo not drawn): the IC50 in assay [4] was 293 µM (active).

Take `Cc1cc(Cc2cc(C)c(N)cc2N)c(N)cc1N`: the AC50 at Cytochrome P450 1A2 was 2 µM (inconclusive).

Take `CCOc1cc(CN2CCN(C(=O)CC(C)C)CC2)ccc1OC`: in assay [4], the IC50 is 155 µM (active).

As for `Cn1nc(C(F)(F)F)c(C(=O)Nc2ccc(F)cc2F)c1Sc1cccc(C(F)(F)F)c1`, the AC50 was 20 µM (inconclusive) on Cytochrome P450 2D6 and 15.8 µM (inconclusive) on Cytochrome P450 1A2.

`Cn1c(=O)c(C(=O)NNC(=O)c2ccccc2Br)c(O)c2ccccc21`: the results for the EC50 (in assay [5]; at Streptokinase A; in the assay on Streptococcus) were 4.72 µM (active), > 150 µM (not active) and 18.7 µM (active), respectively.

For the compound `c1ccc(CN2CCN(c3nc4ccccc4c4ccccc34)CC2)cc1`, the EC50 was 15.9 µM (active) in assay [5], 14.9 µM (active) on Streptokinase A and > 150 µM (not active) in the assay with Streptococcus.

On to `COc1cc(NC(=O)c2ccccc2)c(OC)cc1NC(=O)CN1CCN(c2ccccn2)CC1`, for which the AC50 on Cytochrome P450 1A2 is 25.1 µM (inconclusive); on Cytochrome P450 3A4 it was 12.6 µM (inconclusive).

Consider `COC(=O)[C@H](C)[C@@H]1C[C@@]1(C)[C@@H](NC(=O)OCc1ccccc1)c1ccccc1`, for which the AC50 on Cytochrome P450 1A2 is 15.8 µM (inconclusive).

Turning to `CC1Cc2ccccc2N1C(=O)CNCCCN(C)C` (stereo not drawn), the 50% inhibitory concentration (IC50) in assay [4] was 76.9 µM (active).

On to `CC(C)(C)c1ccc(C(=O)NCc2ccc(Cl)cc2)cc1`, for which the AC50 at Cytochrome P450 1A2 was 2 µM (inconclusive).

For `Cc1[nH]c2ccccc2c1C(=O)CN1CCCCC1C` (stereo not drawn), in [3], the EC50 was 9.87 µM (active).

`CCOc1ccc(Nc2nc(N3CCCCC3)nc(N3CCCCC3)n2)cc1`: the EC50 in assay [5] was 0.648 µM (active); on Streptokinase A, > 150 µM (not active); in the assay on Streptococcus, 54.1 µM (active).

`O=C(NC(=S)Nc1ccc(N2CCOCC2)c(Cl)c1)c1cccs1`: the EC50 in [5] was 11 µM (active); at Streptokinase A, > 150 µM (not active); in the assay on Streptococcus, 15.8 µM (active).

On to `CCC/C=C(\CCC)C(NS(=O)(=O)c1cccc2cccnc12)c1ccc(C(=O)OC)cc1` (stereo not drawn), for which the AC50 on Cytochrome P450 1A2 was 6.31 µM (inconclusive).

For `COC(=O)c1ccccc1NS(=O)(=O)c1ccc2c3c(cccc13)C(=O)N2`, the AC50 at Cytochrome P450 2D6 is 28.2 µM (inconclusive); at Cytochrome P450 1A2 it was 15.8 µM (inconclusive); on Cytochrome P450 3A4 it was 12.6 µM (inconclusive).
